Assay results reported in ChEMBL document CHEMBL1143176, “Design, synthesis, and biological activity of piperidine diamine derivatives as factor Xa inhibitor” (Bioorg Med Chem Lett, 2008).
In brackets after ≈: the same amount, converted by molar mass.

Experiments:
[1] = Metabolic stability assessed as intrinsic clearance in human liver microsome; type: ADME; details: liver microsomes
[2] = Metabolic stability assessed as half life in human liver microsome; type: ADME; details: liver microsomes
[3] = Solubility in japanese pharmacopoeia second fluid at pH 6.8; type: physicochemical
Coagulation factor X = Coagulation factor X (Homo sapiens, UniProt P00742); assay: Inhibition of human factor 10a
Chain of Coagulation factor X (P00742 41-179 limits assumed): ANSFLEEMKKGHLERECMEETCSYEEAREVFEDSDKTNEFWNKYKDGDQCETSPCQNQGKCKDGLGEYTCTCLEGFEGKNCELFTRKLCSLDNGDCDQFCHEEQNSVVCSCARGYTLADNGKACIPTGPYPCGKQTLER
Chain of Coagulation factor X (P00742 235-488 limits assumed): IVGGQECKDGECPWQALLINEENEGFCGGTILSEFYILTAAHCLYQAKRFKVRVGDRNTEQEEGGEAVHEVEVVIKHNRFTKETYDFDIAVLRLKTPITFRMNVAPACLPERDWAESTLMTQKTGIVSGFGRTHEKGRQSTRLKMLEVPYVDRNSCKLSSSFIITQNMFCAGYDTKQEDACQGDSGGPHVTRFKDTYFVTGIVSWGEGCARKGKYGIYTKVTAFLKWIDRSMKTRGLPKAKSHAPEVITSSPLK

Plasma = assay: Anticoagulant activity in human plasma assessed as concentration required to double prothrombin time; type: functional
Rattus norvegicus [4] = assay: Ex vivo inhibition of factor 10a in Wistar rat plasma at 10 mg/kg, po after 1 hr; type: functional
Rattus norvegicus [5] = assay: Ex vivo inhibition of factor 10a in Wistar rat plasma at 10 mg/kg, po after 2 hrs; type: functional
Rattus norvegicus [6] = assay: Ex vivo inhibition of factor 10a in Wistar rat plasma at 10 mg/kg, po after 0.5 hrs; type: functional
Rattus norvegicus [7] = assay: Ex vivo inhibition of factor 10a in Wistar rat plasma at 10 mg/kg, po after 4 hrs; type: functional
[8] = Cmax in monkey at 1.0 mg/kg, po; type: ADME, organism-based, Macaca mulatta; parameters: dose 1 mg/kg, route oral; details: rhesus monkey, in vivo
[9] = AUC (0 to 24 hrs) in monkey at 1.0 mg/kg, po; type: ADME, organism-based, Macaca mulatta; parameters: time < 24 hr, dose 1 mg/kg, route oral; details: rhesus monkey, plasma
[10] = Tmax in monkey at 1.0 mg/kg, po; type: ADME, organism-based, Macaca mulatta; parameters: dose 1 mg/kg, route oral; details: rhesus monkey, in vivo

Structure (SMILES) | CLint scaled [1] | half-life [2] | solubility [3] | IC50 (Coagulation factor X) | Activity (Plasma) | also measured
COCCN1CC[C@H](NC(=O)c2cc3cc(Cl)ccc3[nH]2)[C@H](NC(=O)c2nc3c(s2)CN(C)CC3)C1 | – | – | 130 µg/mL (≈ 245 µM) | 47 nM | 3.8 µM | –
CN1CCc2nc(C(=O)N[C@@H]3CN(C(=O)NC(C)(C)C)CC[C@@H]3NC(=O)c3cc4cc(Cl)ccc4[nH]3)sc2C1 | – | – | 39 µg/mL (≈ 68.2 µM) | 4.8 nM | 0.78 µM | –
COCC(=O)N1CC[C@H](NC(=O)c2cc3cc(Cl)ccc3[nH]2)[C@H](NC(=O)c2nc3c(s2)CN(C)CC3)C1 | – | – | 510 µg/mL (≈ 936 µM) | 5.8 nM | 0.78 µM | inhibition in vivo at 10 mg/kg (Rattus norvegicus [4]): 50%; inhibition in vivo at 10 mg/kg (Rattus norvegicus [5]): 38%; inhibition in vivo at 10 mg/kg (Rattus norvegicus [6]): 68%; inhibition in vivo at 10 mg/kg (Rattus norvegicus [7]): 16%
CCNC(=O)N1CC[C@H](NC(=O)c2cc3cc(Cl)ccc3[nH]2)[C@H](NC(=O)c2nc3c(s2)CN(C)CC3)C1 | – | – | 220 µg/mL (≈ 404 µM) | 7.8 nM | 0.8 µM | inhibition in vivo at 10 mg/kg (Rattus norvegicus [4]): 11.4%; inhibition in vivo at 10 mg/kg (Rattus norvegicus [5]): 5.3%; inhibition in vivo at 10 mg/kg (Rattus norvegicus [6]): 16.7%; inhibition in vivo at 10 mg/kg (Rattus norvegicus [7]): 4.3%
CN1CCc2nc(C(=O)N[C@@H]3CN(C(=O)N(C)C)CC[C@@H]3NC(=O)c3cc4cc(Cl)ccc4[nH]3)sc2C1 | – | – | 56 µg/mL (≈ 103 µM) | – | – | inhibition in vivo at 10 mg/kg (Rattus norvegicus [4]): 78.6%; inhibition in vivo at 10 mg/kg (Rattus norvegicus [5]): 73.7%; inhibition in vivo at 10 mg/kg (Rattus norvegicus [6]): 80.2%; inhibition in vivo at 10 mg/kg (Rattus norvegicus [7]): 68.1%
CN1CCc2nc(C(=O)N[C@@H]3CCCC[C@@H]3NC(=O)c3cc4cc(Cl)ccc4[nH]3)sc2C1.Cl | – | – | – | – | – | Cmax [8]: 23.3 ng/mL; AUC(0-t) at 24 h [9]: 56.6 ng·h/mL; Tmax [10]: 2 h
COCC(=O)N1CC[C@H](NC(=O)c2cc3cc(Cl)ccc3[nH]2)[C@H](NC(=O)c2nc3c(s2)CN(C)CC3)C1.Cl | – | – | – | – | – | Cmax [8]: 36.4 ng/mL; AUC(0-t) at 24 h [9]: 83.6 ng·h/mL; Tmax [10]: 1.2 h
COCC(=O)N1CCC(NC(=O)c2cc3cc(Cl)ccc3[nH]2)C(NC(=O)c2nc3c(s2)CN(C)CC3)C1 (racemic) | 45.9 mL/min/kg | 13.6 min | – | – | – | –
CN1CCc2nc(C(=O)NC3CN(C(=O)CO)CCC3NC(=O)c3cc4cc(Cl)ccc4[nH]3)sc2C1 (racemic) | 41.4 mL/min/kg | 15.1 min | – | – | – | –
CC(=O)N1CCC(NC(=O)c2cc3cc(Cl)ccc3[nH]2)C(NC(=O)c2nc3c(s2)CN(C)CC3)C1 (racemic) | 95.4 mL/min/kg | 6.54 min | 421 µg/mL (≈ 817 µM) | – | – | –
CCOC(=O)N1CCC(NC(=O)c2nc3c(s2)CN(C)CC3)C(NC(=O)c2cc3cc(Cl)ccc3[nH]2)C1 (racemic) | – | – | 37 µg/mL (≈ 67.9 µM) | 110 nM | 11 µM | –
CC(=O)N1CCC(NC(=O)c2nc3c(s2)CN(C)CC3)C(NC(=O)c2cc3cc(Cl)ccc3[nH]2)C1 (racemic) | – | – | 290 µg/mL (≈ 563 µM) | 48 nM | 5.8 µM | –
CCOC(=O)N1CCC(NC(=O)c2cc3cc(Cl)ccc3[nH]2)C(NC(=O)c2nc3c(s2)CN(C)CC3)C1 (racemic) | 138 mL/min/kg | 4.53 min | 43 µg/mL (≈ 78.9 µM) | 4.5 nM | 1.4 µM | –
CN1CCc2nc(C(=O)NC3CNCCC3NC(=O)c3cc4cc(Cl)ccc4[nH]3)sc2C1 (racemic) | – | – | 996 µg/mL (≈ 2110 µM) | 62 nM | 1.3 µM | –
CN1CCc2nc(C(=O)NC3CN(C(=O)NC(C)(C)C)CCC3NC(=O)c3cc4cc(Cl)ccc4[nH]3)sc2C1 (racemic) | 99.9 mL/min/kg | 6.24 min | – | – | – | –
CN1CCc2nc(C(=O)NC3CN(C(=O)OC(C)(C)C)CCC3NC(=O)c3cc4cc(Cl)ccc4[nH]3)sc2C1 (racemic) | 140 mL/min/kg | 4.44 min | 3 µg/mL (≈ 5.23 µM) | 10 nM | 3.5 µM | –
CN1CCc2nc(C(=O)NC3CCN(S(C)(=O)=O)CC3NC(=O)c3cc4cc(Cl)ccc4[nH]3)sc2C1 (racemic) | – | – | 70 µg/mL (≈ 127 µM) | 45 nM | 8 µM | –
CCNC(=O)N1CCC(NC(=O)c2cc3cc(Cl)ccc3[nH]2)C(NC(=O)c2nc3c(s2)CN(C)CC3)C1 (racemic) | 86.4 mL/min/kg | 7.22 min | – | – | – | –
CN1CCc2nc(C(=O)NC3CN(S(C)(=O)=O)CCC3NC(=O)c3cc4cc(Cl)ccc4[nH]3)sc2C1 (racemic) | – | – | 103 µg/mL (≈ 187 µM) | 28 nM | 2.5 µM | –

Further lines, with some results ahead:

CLint scaled [1] | half-life [2] | solubility [3] | IC50 (Coagulation factor X) | Structure (SMILES) | Activity (Plasma) | also measured
97.2 mL/min/kg | 6.42 min | 16 µg/mL (≈ 33.9 µM) | – | CN1CCc2nc(C(=O)N[C@@H]3CCCC[C@@H]3NC(=O)c3cc4cc(Cl)ccc4[nH]3)sc2C1 | – | –
– | – | 66 µg/mL (≈ 122 µM) | 5.6 nM | CC(C)C(=O)N1CC[C@H](NC(=O)c2cc3cc(Cl)ccc3[nH]2)[C@H](NC(=O)c2nc3c(s2)CN(C)CC3)C1 | 1.1 µM | –
– | – | 410 µg/mL (≈ 772 µM) | 9.3 nM | CN1CCc2nc(C(=O)N[C@@H]3CN(C(=O)CO)CC[C@@H]3NC(=O)c3cc4cc(Cl)ccc4[nH]3)sc2C1 | 0.9 µM | inhibition in vivo at 10 mg/kg (Rattus norvegicus [4]): -2%; inhibition in vivo at 10 mg/kg (Rattus norvegicus [5]): -2.5%; inhibition in vivo at 10 mg/kg (Rattus norvegicus [6]): 0.76%; inhibition in vivo at 10 mg/kg (Rattus norvegicus [7]): -7.3%
– | – | 28 µg/mL (≈ 51.4 µM) | 56 nM | COC(=O)CN1CC[C@H](NC(=O)c2cc3cc(Cl)ccc3[nH]2)[C@H](NC(=O)c2nc3c(s2)CN(C)CC3)C1 | 2.1 µM | –
– | – | 160 µg/mL (≈ 302 µM) | 9 nM | CCC(=O)N1CC[C@H](NC(=O)c2cc3cc(Cl)ccc3[nH]2)[C@H](NC(=O)c2nc3c(s2)CN(C)CC3)C1 | 0.78 µM | –
– | – | 723 µg/mL (≈ 1360 µM) | 26 nM | CN1CCc2nc(C(=O)N[C@@H]3CN(CC(=O)O)CC[C@@H]3NC(=O)c3cc4cc(Cl)ccc4[nH]3)sc2C1 | 1.8 µM | –
103 mL/min/kg | 6.08 min | – | – | CCC(=O)N1CCC(NC(=O)c2cc3cc(Cl)ccc3[nH]2)C(NC(=O)c2nc3c(s2)CN(C)CC3)C1 (racemic) | – | –
92.7 mL/min/kg | 6.73 min | – | – | CN1CCc2nc(C(=O)NC3CN(C(=O)N(C)C)CCC3NC(=O)c3cc4cc(Cl)ccc4[nH]3)sc2C1 (racemic) | – | –
81 mL/min/kg | 7.7 min | 17 µg/mL (≈ 36 µM) | – | CN1CCc2nc(C(=O)NC3CCCCC3NC(=O)c3cc4cc(Cl)ccc4[nH]3)sc2C1 (racemic) | 4.4 µM | –
– | – | < 1 µg/mL | 130 nM | CN1CCc2nc(C(=O)NC3CCN(C(=O)OC(C)(C)C)CC3NC(=O)c3cc4cc(Cl)ccc4[nH]3)sc2C1 (racemic) | 6.2 µM | –
– | – | 830 µg/mL (≈ 1750 µM) | 530 nM | CN1CCc2nc(C(=O)NC3CCNCC3NC(=O)c3cc4cc(Cl)ccc4[nH]3)sc2C1 (racemic) | >20 µM | –
98.1 mL/min/kg | 6.36 min | – | – | CC(C)C(=O)N1CCC(NC(=O)c2cc3cc(Cl)ccc3[nH]2)C(NC(=O)c2nc3c(s2)CN(C)CC3)C1 (racemic) | – | –
